Measured values reported in patent US20220259593A1, “CONTROL OF MAMMALIAN GENE DOSAGE USING CRISPR” (The Regents of the University of California, priority 2019, published 2022).

Columns and labels:
[1] = test system: K562 CRISPRi cells; assay: Perturb-seq pooled growth measurement (sgRNA counts, growth phenotype γ, relative activity); type: cell-based, human; settings: γ relative to perfectly matched sgRNA (_00) of the same gene, day 10
[2] = test system: K562 CRISPRi cells; assay: as above; type: cell-based, human; settings: for gamma_day5 / gamma_day10: pooled growth phenotype γ of the Perturb-seq sgRNA; for gamma_day5: day 5, K562 CRISPRi cells; for gamma_day10: day 10, K562 CRISPRi cells; for relative_activity_day5: γ relative to perfectly matched sgRNA (_00) of the same gene, day 5; for Perturb-seq pooled growth sgRNA counts, d5 / Perturb-seq pooled growth sgRNA counts, d10 / Perturb-seq pooled growth sgRNA counts, T0: sequencing read counts; for Perturb-seq pooled growth sgRNA counts, d5: 5 days of growth (day seven after transduction); for Perturb-seq pooled growth sgRNA counts, d10: 10 days of growth (day twelve after transduction); for Perturb-seq pooled growth sgRNA counts, T0: T0 = day two after transduction
Method in brief: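 CRISPRi K562 cells from the Perturb-seq transduced pool; 500,000-cell samples taken days two, seven and twelve post-transduction. sgRNA amplicons from genomic DNA sequenced; growth phenotypes from normalized sgRNA abundances at days seven and twelve versus day two. Relative activity assigned from day seven (five days' growth).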

| Substance | relative_activity_day10 [1] | gamma_day5 [2] | gamma_day10 [2] | relative_activity_day5 [2] | Perturb-seq pooled growth sgRNA counts, d5 [2] | Perturb-seq pooled growth sgRNA counts, d10 [2] | Perturb-seq pooled growth sgRNA counts, T0 [2] |
| --- | --- | --- | --- | --- | --- | --- | --- |
| ALDOA_ + _30077139.23-P1P2_00 (guide GGTCACCAGGACCCCTTCTG; listed as DNA, chemistry not fully specified) | 1 | −0.4127 | −0.3665 | 1 | – | – | – |
| ALDOA_ + _30077139.23-P1P2_06 (guide GGTCACCAGGATCCCTTCTG; listed as DNA, chemistry not fully specified) | 0.951 | −0.3967 | −0.3485 | 0.9611 | – | – | – |
| ALDOA_ + _30077139.23-P1P2_07 (guide GGTCACCAGGCCCCCTTCTG; listed as DNA, chemistry not fully specified) | 0.9143 | −0.3609 | −0.3351 | 0.8744 | – | – | – |
| ALDOA_ + _30077139.23-P1P2_13 (guide GGTCACCAGGACCCCTTTTG; listed as DNA, chemistry not fully specified) | 0.0006011 | 0.01706 | −0.0002203 | −0.04134 | – | – | – |
| ALDOA_ + _30077139.23-P1P2_14 (guide GGTCACCAGGACCGCTTCTG; listed as DNA, chemistry not fully specified) | 0.4274 | −0.1752 | −0.1566 | 0.4246 | – | – | – |
| ATP5E_ −_57607036.23-P1P2_00 (guide GGTGTCCAGGGGCACTCTGT; listed as DNA, chemistry not fully specified) | 1 | −0.1769 | −0.2247 | 1 | – | – | – |
| ATP5E_ −_57607036.23-P1P2_01 (guide GGTGTCCTGGGGCACTCTGT; listed as DNA, chemistry not fully specified) | 1.016 | −0.2097 | −0.2284 | 1.185 | – | – | – |
| ATP5E_ −_57607036.23-P1P2_04 (guide GGTGTCCAGGAGCACTCTGT; listed as DNA, chemistry not fully specified) | 0.5358 | −0.09793 | −0.1204 | 0.5536 | – | – | – |
| ATP5E_ −_57607036.23-P1P2_14 (guide GGTGTCCAGGGGCACTGTGT; listed as DNA, chemistry not fully specified) | 0.156 | −0.01233 | −0.03506 | 0.0697 | – | – | – |
| ATP5E_ −_57607036.23-P1P2_16 (guide GGTGTCCAGGGGCGCTCTGT; listed as DNA, chemistry not fully specified) | 0.7368 | −0.1616 | −0.1656 | 0.9135 | – | – | – |
| BCR_ + _23523092.23-P1P2_00 (guide GCGCGCGGGGCCCGTCTCAG; listed as DNA, chemistry not fully specified) | 1 | −0.8426 | −0.5068 | 1 | – | – | – |
| BCR_ + _23523092.23-P1P2_04 (guide GCGCGCGGAGCCCGTCTCAG; listed as DNA, chemistry not fully specified) | 0.8249 | −0.7401 | −0.418 | 0.8783 | – | – | – |
| BCR_ + _23523092.23-P1P2_05 (guide GCGCGCGGCGCCCGTCTCAG; listed as DNA, chemistry not fully specified) | 0.4434 | −0.3535 | −0.2247 | 0.4196 | – | – | – |
| BCR_ + _23523092.23-P1P2_07 (guide GCGCGCGGGGCTCGTCTCAG; listed as DNA, chemistry not fully specified) | 0.9607 | −0.8707 | −0.4869 | 1.033 | – | – | – |
| BCR_ + _23523092.23-P1P2_13 (guide GCGCGCGGGGCCCATCTCAG; listed as DNA, chemistry not fully specified) | 0.3187 | −0.2183 | −0.1615 | 0.2591 | – | – | – |
| BCR_ + _23523092.23-P1P2_15 (guide GCGCGCGGGGCCCGTCGCAG; listed as DNA, chemistry not fully specified) | 0.3498 | −0.2314 | −0.1773 | 0.2747 | – | – | – |
| CAD_ + _27440280.23-P1P2_00 (guide GGCTGGAGAGAAGCCGGGCG; listed as DNA, chemistry not fully specified) | 1 | −0.7714 | −0.684 | 1 | – | – | – |
| CAD_ + _27440280.23-P1P2_03 (guide GGCTGGTGAGAAGCCGGGCG; listed as DNA, chemistry not fully specified) | 0.9162 | −0.7687 | −0.6267 | 0.9965 | – | – | – |
| CAD_ + _27440280.23-P1P2_06 (guide GGCTGGAGAGTAGCCGGGCG; listed as DNA, chemistry not fully specified) | 0.4592 | −0.3975 | −0.3141 | 0.5153 | – | – | – |
| CAD_ + _27440280.23-P1P2_07 (guide GGCTGGAGCGAAGCCGGGCG; listed as DNA, chemistry not fully specified) | 0.6811 | −0.6026 | −0.4659 | 0.7812 | – | – | – |
| non-targeting_00001: non-targeting negative control sgRNA, GTGCACCCGGCTAGGACCGG, SEQ ID NO: 161 (listed as DNA, chemistry not fully specified) [reference compound] | – | – | – | – | 18946 | 31944 | 10415 |
| non-targeting_00028: non-targeting negative control sgRNA, GGTGGCCTTTGCAATTGGCG, SEQ ID NO: 162 (listed as DNA, chemistry not fully specified) [reference compound] | – | – | – | – | 20289 | 35652 | 8871 |
| non-targeting_00054: non-targeting negative control sgRNA, GGGCCTGGACGAGCCTAAAA, SEQ ID NO: 163 (listed as DNA, chemistry not fully specified) [reference compound] | – | – | – | – | 29818 | 49855 | 12360 |
| non-targeting_00089: non-targeting negative control sgRNA, GGGGTGAGGGTCCAATTCGG, SEQ ID NO: 164 (listed as DNA, chemistry not fully specified) [reference compound] | – | – | – | – | 27748 | 44919 | 10841 |
| non-targeting_00217: non-targeting negative control sgRNA, GTGAACTCAAAAATCCCGAC, SEQ ID NO: 165 (listed as DNA, chemistry not fully specified) [reference compound] | – | – | – | – | 25185 | 42962 | 10286 |
| non-targeting_00283: non-targeting negative control sgRNA, GGGCCGACGGATAGGAGGGA, SEQ ID NO: 166 (listed as DNA, chemistry not fully specified) [reference compound] | – | – | – | – | 18547 | 27936 | 8188 |
| non-targeting_00406: non-targeting negative control sgRNA, GGCGCCGGACTGGACCTCGA, SEQ ID NO: 167 (listed as DNA, chemistry not fully specified) [reference compound] | – | – | – | – | 24099 | 39839 | 9974 |
| non-targeting_00527: non-targeting negative control sgRNA, GTGGGAGCAGATCAAGACTC, SEQ ID NO: 168 (listed as DNA, chemistry not fully specified) [reference compound] | – | – | – | – | 16865 | 27634 | 6840 |
| non-targeting_00802: non-targeting negative control sgRNA, GCACGACGCTCCGGCACGCG, SEQ ID NO: 169 (listed as DNA, chemistry not fully specified) [reference compound] | – | – | – | – | 16759 | 27842 | 7096 |
| non-targeting_01040: non-targeting negative control sgRNA, GTACGGCATGGCGCACTGCG, SEQ ID NO: 170 (listed as DNA, chemistry not fully specified) [reference compound] | – | – | – | – | 0 | 0 | 0 |
